In patent US8207121B2, “Sensitization to another anticancer therapy and/or amelioration of a side effect of another anticancer therapy by treatment with a GST-activated anticancer compound” (Telik, Inc., priority 2004, dated 2012):
Where a name gives a salt, the structure may show the parent alone. Read-outs that look alike come from different tables or passages of the source.

Experiments:
[1] = system: M7609 xenografts; conditions: xenografts engineered to have high, medium, and low GST P1-1; cited from earlier work
[2] = Clinical observation: side effects of carboplatin therapy in ovarian cancer patients; format: in vivo, human
Text: Ovarian cancer patients treated with carboplatin-containing regimens underwent repeated cycles of alopecia corresponding to the administration of the carboplatin.

[3] = system: ovarian, breast, non-small cell lung, and colorectal cancers; conditions: cited from earlier work
[4] = system: OVCAR-3 cells; test: Cytotoxicity assay (CellTiter-Glo), OVCAR-3; format: cell-based; conditions: Homo sapiens
Description: Cancer cell line. The human cancer cell line OVCAR-3 (ovarian adenocarcinoma) was obtained from the National Cancer Institute, Bethesda, Md., U.S.A.
(§1) A paclitaxel-resistant derivative cell line OVCAR-PR was developed from the human ovarian cancer cell line OVCAR-3 by growing OVCAR-3 cells in gradually increasing concentrations (up to 5 nM) of paclitaxel. A canfosfamide-modified derivative cell line OVCAR-TLK was developed by growing OVCAR-3 cells in gradually increasing concentrations (up to 6.5 μM) of canfosfamide. To maintain the phenotypes of the cell lines, the cells were treated with the compounds at weekly intervals. Cells were grown in compound-free media for 24 hours before any experiments.
(§2) Cytotoxicity assay. Log-phase cells were seeded in 96-well plates and incubated with the diluted compound or solvent for 2-3 doubling times. The extent of cell growth was quantitated using the CellTiter-Glo assay (Promega Corporation, Madison, Wis., U.S.A.), used in accordance with the assay kit directions. The amount of ATP in the lysate, which corresponds to the number of viable cells, was quantitated using a luminometer. All assays were conducted in triplicate wells, with solvent control. The extent of cell growth was expressed as a percentage of the signal from the solvent control wells. The mean of the triplicate wells was computed and IC50 determined using PrismGraph.

[5] = system: OVCAR-PR cells; test: Cytotoxicity assay (CellTiter-Glo), paclitaxel-resistant OVCAR-PR; format: cell-based, human; conditions: for IC50: Homo sapiens; for increase in resistance: IC50 in OVCAR-PR cells versus OVCAR-3 cells
Description: as §1, §2

[6] = system: OVCAR-TLK cells; test: Cytotoxicity assay (CellTiter-Glo), canfosfamide-modified OVCAR-TLK; format: cell-based, human
Description: as §1, §2
Cell doubling time. 1.5×10^4 cells were seeded in a 25-mL flask. The cells were grown for four days and the number of viable cells was determined by Trypan Blue staining and manual counting using a hemocytometer. The assay was conducted in triplicate at each time point. The times for two cell doublings for OVCAR-3 and OVCAR-TLK cells were approximately 3.5 and 5.5 days, respectively.

[7] = target: T1, GST M1a-1a (Homo sapiens, UniProt P09488); conditions: cited from earlier work
T1 sequence (P09488 1-218): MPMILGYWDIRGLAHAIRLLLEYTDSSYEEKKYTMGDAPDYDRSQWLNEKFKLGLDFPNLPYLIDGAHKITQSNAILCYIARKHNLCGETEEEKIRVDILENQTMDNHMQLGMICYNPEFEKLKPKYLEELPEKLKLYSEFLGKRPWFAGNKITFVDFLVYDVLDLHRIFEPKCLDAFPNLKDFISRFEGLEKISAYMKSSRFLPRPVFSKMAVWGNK

[8] = system: cell culture and tumor biopsies; conditions: cited from earlier work
[9] = system: M6709 human colon carcinoma cell line selected for resistance to doxorubicin; conditions: line overexpresses GST P1-1; cited from earlier work
[10] = target: GST P1-1 (Homo sapiens, UniProt P09211); conditions: cited from earlier work
[11] = system: MCF-7 human breast carcinoma cell line selected for resistance to cyclophosphamide; conditions: line overexpresses GST P1-1; cited from earlier work
[12] = target: T2, GST A1-1 (Homo sapiens, UniProt P08263); conditions: cited from earlier work
T2 sequence (P08263 1-222): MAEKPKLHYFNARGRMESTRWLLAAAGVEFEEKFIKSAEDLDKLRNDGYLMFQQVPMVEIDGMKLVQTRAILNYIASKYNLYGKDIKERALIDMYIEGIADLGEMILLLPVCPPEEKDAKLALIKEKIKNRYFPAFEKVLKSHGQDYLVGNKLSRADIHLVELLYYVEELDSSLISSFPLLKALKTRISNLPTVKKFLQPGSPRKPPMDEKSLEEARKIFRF

Chain of GST P1-1 (P09211 2-210 limits assumed): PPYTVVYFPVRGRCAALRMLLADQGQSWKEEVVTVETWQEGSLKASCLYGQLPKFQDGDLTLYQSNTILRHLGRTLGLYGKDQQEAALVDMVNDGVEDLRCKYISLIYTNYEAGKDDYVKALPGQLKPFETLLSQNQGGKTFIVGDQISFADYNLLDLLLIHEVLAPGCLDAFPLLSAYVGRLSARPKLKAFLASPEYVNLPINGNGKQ

For `N[C@@H](CCC(=O)N[C@@H](CS(=O)(=O)CCOP(=O)(N(CCCl)CCCl)N(CCCl)CCCl)C(=O)N[C@@H](C(=O)O)c1ccccc1)C(=O)O` [canfosfamide hydrochloride], the “potency versus level of GST P1-1” value [1] is listed as “positively correlated with the level of GST P1-1”, the “recurrence of alopecia with carboplatin treatment” value ([2]; carboplatin AUC 5 or 6 mg/mL·min with canfosfamide hydrochloride 500, 750 and 960 mg/m^2) is listed as “did not experience the same recurrence of alopecia” and the “hematologic and neurologic side effects of carboplatin” value ([2]; carboplatin in combination with canfosfamide hydrochloride) is listed as “similarly ameliorated”. For the same molecule, the “hematological toxicity in patients” value ([3]; treated patients) was “very low incidence of clinically significant hematological toxicity”.

For `CC(=O)O[C@H]1C(=O)[C@@]2(C)[C@H]([C@H](OC(=O)c3ccccc3)[C@]3(O)C[C@H](OC(=O)[C@H](O)[C@@H](NC(=O)c4ccccc4)c4ccccc4)C(C)=C1C3(C)C)[C@]1(OC(C)=O)CO[C@@H]1C[C@@H]2O` [paclitaxel], the IC50 ([4]; OVCAR-3 cells, read-out: IC50) was 1.3 nM, the IC50 ([5]; OVCAR-PR cells, read-out: IC50) was 49 nM and the increase in resistance [5] was “more than 35 fold”. The “decrease of IC50 for paclitaxel after canfosfamide pretreatment” value ([5]; OVCAR-PR cells first treated overnight with 4 μM canfosfamide) was “approximately 3 fold”, the “IC50s for paclitaxel, OVCAR-3 versus OVCAR-TLK” value ([6]; equal treatment times) was “approximately the same” and the “IC50 for paclitaxel lower in OVCAR-TLK than in OVCAR-3 cells” value ([6]; treatment times adjusted for doubling times (approximately two doubling times)) was “about 2 fold”.

In the case of `N[C@@H](CCC(=O)N[C@@H](CS(=O)(=O)CCOP(=O)(N(CCCl)CCCl)N(CCCl)CCCl)C(=O)NCC(=O)O)C(=O)O` [TLK231, L-γ-glutamyl-3-[[2-[[bis[bis(2-chloroethyl)amino]phosphinyl]oxy]ethyl]sulfonyl]-L-alanyl-glycine], the “activation by GST isoenzyme” value [7] is given as “activated”.

For `N[C@@H](CCC(=O)N[C@@H](CS(=O)(=O)CCOP(=O)(N(CCCl)CCCl)N(CCCl)CCCl)C(=O)N[C@@H](C(=O)O)c1ccccc1)C(=O)O` [canfosfamide, L-γ-glutamyl-3-[[2-[[bis[bis(2-choroethyl)-amino]phosphinyl]oxy]ethyl]sulfonyl]-L-alanyl-2-phenyl-(2R)-glycine], the “cross-resistance to platinum, paclitaxel, doxorubicin and gemcitabine” value [8] is listed as “non-cross-resistant”, the “potency versus parental cell line” value [9] is listed as “more potent” and the IC50 ([4]; OVCAR-3) is listed as 1300 nM. For the same molecule, the “activation by GST isoenzyme” value [10] was “activated”, the “potency versus parental cell line” value [11] was “more potent” and the clinical activity ([3]; colorectal and breast cancer) was “single agent antitumor activity”. For the same molecule, the clinical activity ([3]; patients with non-small cell lung cancer and ovarian cancer) was “significant single agent antitumor activity and improvement in survival”, the “activation by GST isoenzyme” value [12] was “activated” and the IC50 [5] was 1600 nM. For the same molecule, the increase in resistance [5] was 1.2 fold and the “sensitivity to canfosfamide, OVCAR-3 versus OVCAR-TLK” value ([6]; treated for approximately two doubling times) was “approximately equally sensitive”.

In the case of `C[C@@](NC(=O)[C@H](CS(=O)(=O)CCOP(=O)(N(CCCl)CCCl)N(CCCl)CCCl)NC(=O)CC[C@H](N)C(=O)O)(C(=O)O)c1ccccc1` [TLK(303, L-γ-glutamyl-3-[[2-[[bis[bis(2-chloroethyl)-amino]phosphinyl]oxy]ethyl]sulfonyl]-L-alanyl-2-phenyl-(2S)-alanine], the “activation by GST isoenzyme” value [12] is given as “activated”.

In the case of `N[C@@H](CCC(=O)N[C@@H](Cc1cccc(S(=O)(=O)CCOP(=O)(N(CCCl)CCCl)N(CCCl)CCCl)c1)C(=O)NCC(=O)O)C(=O)O` [TLK(296, L-γ-glutamyl-3-[[2-[[bis[bis(2-chloroethyl)amino]phosphinyl]oxy]ethyl]sulfonyl]-L-phenylalanyl-glycine], the “activation by GST isoenzyme” value [10] is listed as “activated”.
